Patent publication US20150238539A1, “COMPOSITION FOR BRAIN-NEURON PROTECTION AND BRAIN-DISEASE PREVENTION, ALLEVIATION OR TREATMENT COMPRISING MUSKRAT MUSK” (priority 2012, published 2015)

Assays:
male ICR mouse [1] = test: Passive avoidance experiment in mice with ethanol-induced memory damage; type: in vivo; settings: oral once a day for 4 days; for Time of arrival in the learning test: acquisition trial, ethanol orally 30 minutes after last administration; for Time of arrival in the retention trial: step-through latency 24 hours after learning test, measured up to 300 seconds, then ethanol
Method: (§1) As for the experimental animals, 18 to 20 g of 45 male ICR mouse purchased from DAEHAN Animal Experiment Co., Ltd. were used. Specifically, the animals were classified to include five mice per group, then placed in a cage, sufficiently fed with water and foodstuff, and bred in an animal room wherein the temperature (24 ±1° C.), relative humidity (55±5%) and the light-dark (06:00-18:00, light) were controlled during the experiment period. The animals were classified into nine groups of the non-treated group, the ethanol group, the tacrine group and the groups of PREPARATIONS 1 to 6.
The passive avoidance experiment was performed in order to confirm the effects of the compositions of PREPARATIONS 1 to 6 on each memory and learning. This experiment uses the characteristics that animals intend to enter into the dark instinctively. If the animals intend to enter into the dark, an electrical stimulation is given to the animals to prevent from entering the dark. Thereafter, the short-term memory power against the electrical stimulation was measured.
Four days before the passive avoidance experiment, tacrine and substances PREPARATIONS 1 to 6 were orally administered to seven other groups except for the non-treated group and the ethanol group once a day. On day 4, the last day of administration, tacrine and compositions of PREPARATIONS 1 to 6 were orally administered. After 30 minutes, ethanol which undergoes damage to the memory power of mouse was orally administered to eight groups except for the non-treated group.
The passive avoidance experiment was conducted in the apparatus wherein each room having the same structure and 60 dB or less of noise and including a room with light and a room without light (width 20 cm, length 20 cm, height 20 cm) is connected to the guillotin door (Jungdo Bio & Plant Co. Ltd, Seoul, Korea). The mouse was placed in a bright room with shining light and observed for 10 seconds. Subsequently, the door was opened and the mouse was allowed to enter into the dark room. At this time, the time taken to go into a dark room was measured (Learning Test: acquisition trial). If the mouse enters into the dark room, the door is automatically closed. The electrical stimulation of 0.6 mA was given to the mouse through the stainless grid on the bottom for five seconds.
In order to confirm the effect of recovering the cognitive function of the composition the present invention, influencing on the long-term memory after the learning test, the mouse was placed on the bright side of the room after 24 hours. The time taken to go into the dark room (step-through latency time: time of arrival) was measured up to 300 seconds (retention trial).

male ICR mouse [2] = test: Morris water-maze experiment in mice with ethanol-induced memory damage; type: in vivo; settings: oral once a day for 4 days, then ethanol; for Mean escape latency: mean of 3 trials a day, cut-off 120 seconds; for Time spent in quadrant: probe test on last day, escape platform removed
Method: as §1
The morris water-maze experiment was carried out to measure the degree affecting the recovery of the spatial perception ability and short-term or long-term memory power in experimental animals.
Prior to the morris water-maze experiment, tacrine and the substances of PREPARATIONS 1 to 6 were orally administered to seven groups except for the non-treated group and the ethanol group once a day. On the 4th day, the last day of administration, tacrine and the substances from Preparations 1 to 6 were administered. After 30 minutes, ethanol which undergoes damage to the memory power of the mouse was orally administered to eight groups except for the non-treated group.
In the morris water-maze apparatus, water (temperature: 22±2° C.) was filled by 32 cm within a tank filled with opaque water (diameter 120 cm, height 45 cm) and an escape platform (diameter 10 cm, height 30 cm) was installed in one section of the quadrant located 2 cm below the surface of the water. The powdered skim milk was added to be invisible. The experiment was conducted for five days. The possibility of going to the escape area by chance by changing the positions of acquisition three times a day at three different positions which were minimized. If animals go to the escape area and stay for more than 10 seconds, the time taken until an escape area was found was set to the escape latency. The mean value of the experiments 3 times a day was set to the mean escape latency. In the morris water-maze test, since the test animals remembered and find out the targeting position, the position of the marker was remained constant during the experiment period so that there was no change in the surrounding environment. In the case where the escape platform was not found within 120 seconds, the experiment animal was induced to the escape platform and stayed for 10 seconds, thereby having the position remembered.
On the last day of the experiment, the escape platform was removed. The probe test for measuring the time spent in platform quadrant was carried out.

| SMILES | Time of arrival in the learning test (male ICR mouse [1]) [s] | Time of arrival in the retention trial (male ICR mouse [1]) [s] | Mean escape latency (male ICR mouse [2]) [s] | Time spent in quadrant (male ICR mouse [2]) [s] |
| --- | --- | --- | --- | --- |
| Nc1c2c(nc3ccccc13)CCCC2 [Tacrine, tacrine] | 20 | 85 | 56 | 28 |
| CCO [Ethanol, ethanol] | 12 | 21 | 121 | 18 |
